Laboratory results published in PubChem BioAssay (NCI).
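All cell lines were grown in 96-well plates and treated with compound for 48 hours. Here, GI50 denotes the concentration required for 50% inhibition of growth. At the TGI there is no net growth.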

How the values were obtained:
Assay in all cases: DTP human tumour cell line panel, 48 h
NCI-H226 lung = tested on: NCI-H226 lung
A498 renal = tested on: A498 renal
RXF 393 renal = tested on: RXF 393 renal
CCRF-CEM leukemia = tested on: CCRF-CEM leukemia
NCI-H460 lung = tested on: NCI-H460 lung
PC-3 prostate = tested on: PC-3 prostate
EKVX NSCLC = tested on: EKVX NSCLC
SNB-75 CNS = tested on: SNB-75 CNS

SMILES	GI50 (NCI-H226 lung)	TGI (NCI-H226 lung)	GI50 (A498 renal)	TGI (A498 renal)	GI50 (RXF 393 renal)	TGI (RXF 393 renal)	GI50 (CCRF-CEM leukemia)	TGI (CCRF-CEM leukemia)	GI50 (NCI-H460 lung)	TGI (NCI-H460 lung)	GI50 (PC-3 prostate)	TGI (PC-3 prostate)	GI50 (EKVX NSCLC)	TGI (EKVX NSCLC)	GI50 (SNB-75 CNS)	TGI (SNB-75 CNS)
COc1ccc(/C=C2/CN(CCC#N)C/C(=C\c3ccc(OC)cc3)C2=O)cc1	21.3 µM	> 100 µM	5.03 µM	21.5 µM	1.7 µM	3.29 µM	2.46 µM	> 100 µM	1.97 µM	4.75 µM	2.67 µM	> 100 µM	–	–	–	–
O=C(Nc1ccccc1)Nc1ccc(Cl)c(Cl)c1	3.06 µM	> 100 µM	5.04 µM	68.5 µM	6.31 µM	33.8 µM	4.87 µM	> 100 µM	3.06 µM	> 100 µM	2.41 µM	9.72 µM	2.93 µM	> 100 µM	5.35 µM	> 100 µM
O=C1NC(=N[C@H](CO)c2ccccc2)S/C1=C\c1ccc2ncccc2c1	4.8 µM	16.5 µM	2.07 µM	7.13 µM	4.04 µM	18.1 µM	4.63 µM	16.7 µM	3.71 µM	24.6 µM	4.07 µM	> 25 µM	–	–	1.46 µM	17.7 µM
COc1cc(-c2nn(-c3cccc(NC(=O)CCN4CCN(C)CC4)c3)cc2-c2ccncc2)ccc1Cl	3.67 µM	22.3 µM	0.412 µM	3.23 µM	1.09 µM	2.77 µM	1.98 µM	6.85 µM	0.532 µM	2.28 µM	0.995 µM	3.68 µM	2.13 µM	12.6 µM	0.591 µM	2.92 µM
CCN1C(=O)N(CC)C2C1NN=c1s/c(=C\c3ccc(OC)cc3)c(=O)n12 (stereo unspecified)	1.72 µM	–	0.0222 µM	0.0924 µM	0.0789 µM	47 µM	0.304 µM	> 100 µM	0.242 µM	> 100 µM	0.14 µM	> 100 µM	0.44 µM	> 100 µM	0.0442 µM	2.84 µM
COc1ccc2c(c1)C(=O)c1c-2c(N2CCN(C(=O)CCNCCNCCO)CC2)nc2ccccc12	22.6 µM	48.1 µM	18.7 µM	34.4 µM	–	–	5.32 µM	23.7 µM	4.61 µM	19.6 µM	13.2 µM	27.9 µM	14.5 µM	30.1 µM	18.6 µM	37.4 µM
Cc1cc2c(cc1Cl)SC(C(=O)c1ccc(Cl)c(Cl)c1)NS2(=O)=O (stereo unspecified)	49.9 µM	> 100 µM	70.5 µM	> 100 µM	–	–	27.9 µM	61.2 µM	23.5 µM	50.7 µM	32.5 µM	> 100 µM	37.5 µM	> 100 µM	31.3 µM	81.1 µM
